Where “and” joins values, the source holds several entries; their conditions need not be identical. Equal entries are not always repeated.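 Test compounds were applied to cells in 96-well plates for 48 hours at 5 doses. The concentration for 50% growth inhibition is given as GI50. TGI denotes the concentration required for complete inhibition of growth.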
Columns and labels:
Experiment in all cases: DTP human tumour cell line panel, 48 h
786-0 renal = system: 786-0 renal
NCI-H23 lung = system: NCI-H23 lung
TK-10 renal = system: TK-10 renal
CAKI-1 renal = system: CAKI-1 renal
OVCAR-3 ovarian = system: OVCAR-3 ovarian
BT-549 breast = system: BT-549 breast
HCT-116 colon = system: HCT-116 colon
SK-MEL-5 melanoma = system: SK-MEL-5 melanoma
UO-31 renal = system: UO-31 renal
UACC-257 melanoma = system: UACC-257 melanoma
HCC-2998 colon = system: HCC-2998 colon
SF-268 CNS = system: SF-268 CNS
HS 578T breast = system: HS 578T breast
SN12C renal = system: SN12C renal
A549 NSCLC = system: A549 NSCLC
HOP-62 NSCLC = system: HOP-62 NSCLC
PC-3 prostate = system: PC-3 prostate
T-47D breast = system: T-47D breast
HOP-92 NSCLC = system: HOP-92 NSCLC
COLO 205 colon = system: COLO 205 colon
SW-620 colon = system: SW-620 colon
SF-539 CNS = system: SF-539 CNS
MDA-MB-435 = system: MDA-MB-435
NCI-H460 lung = system: NCI-H460 lung
SR leukemia = system: SR leukemia
MOLT-4 leukemia = system: MOLT-4 leukemia
SNB-75 CNS = system: SNB-75 CNS
NCI-H522 lung = system: NCI-H522 lung
MCF7 breast = system: MCF7 breast
MALME-3M melanoma = system: MALME-3M melanoma
SK-OV-3 ovarian = system: SK-OV-3 ovarian
OVCAR-4 ovarian = system: OVCAR-4 ovarian
NCI-H226 lung = system: NCI-H226 lung
U251 CNS = system: U251 CNS
HCT-15 colon = system: HCT-15 colon
ACHN renal = system: ACHN renal
OVCAR-5 ovarian = system: OVCAR-5 ovarian
CCRF-CEM leukemia = system: CCRF-CEM leukemia
KM12 colon = system: KM12 colon
RPMI-8226 leukemia = system: RPMI-8226 leukemia
M14 melanoma = system: M14 melanoma
IGROV1 ovarian = system: IGROV1 ovarian
UACC-62 melanoma = system: UACC-62 melanoma
K-562 leukemia = system: K-562 leukemia
OVCAR-8 ovarian = system: OVCAR-8 ovarian
NCI/ADR-RES ovarian = system: NCI/ADR-RES ovarian
HT29 colon = system: HT29 colon
DU-145 prostate = system: DU-145 prostate
SK-MEL-28 melanoma = system: SK-MEL-28 melanoma
SK-MEL-2 melanoma = system: SK-MEL-2 melanoma
LOX IMVI melanoma = system: LOX IMVI melanoma
RXF 393 renal = system: RXF 393 renal
A498 renal = system: A498 renal
SF-295 CNS = system: SF-295 CNS
HL-60(TB) leukemia = system: HL-60(TB) leukemia
MDA-MB-231 breast = system: MDA-MB-231 breast
EKVX NSCLC = system: EKVX NSCLC
SNB-19 CNS = system: SNB-19 CNS
MDA-N = system: MDA-N

In the case of `CC(=O)OCC1OC(n2c(S)c(C#N)c(-c3ccccc3)c(C#N)c2=O)C(OC(C)=O)C(OC(C)=O)C1OC(C)=O` (centres undefined), the TGI (786-0 renal) is reported as > 100 µM and 83.4 µM, the GI50 (NCI-H23 lung) is reported as > 100 µM and 45 µM and the TGI (NCI-H23 lung) is reported as over 100 µM. The GI50 (TK-10 renal) was 90.7 µM and 24.9 µM, the TGI (TK-10 renal) was > 100 µM and 86.5 µM and the TGI (CAKI-1 renal) was over 100 µM. The GI50 (OVCAR-3 ovarian) was > 100 µM and 19.5 µM, the TGI (OVCAR-3 ovarian) was > 100 µM and 36.9 µM and the GI50 (BT-549 breast) was > 66.8 µM and 21.1 µM. The TGI (BT-549 breast) was > 100 µM and 59.1 µM, the GI50 (HCT-116 colon) was > 100 µM and 39.3 µM and the TGI (HCT-116 colon) was over 100 µM. For the same compound, the GI50 (SK-MEL-5 melanoma) was > 100 µM and 20.2 µM, the TGI (SK-MEL-5 melanoma) was > 100 µM and 41.6 µM and the GI50 (UO-31 renal) was > 68.1 µM and 29.1 µM. The TGI (UO-31 renal) was > 100 µM and 87.3 µM, the GI50 (UACC-257 melanoma) was > 100 µM and 36.2 µM and the TGI (UACC-257 melanoma) was > 100 µM and 81.4 µM. For the same compound, the GI50 (HCC-2998 colon) was > 100 µM and 18 µM, the TGI (HCC-2998 colon) was > 100 µM and 32.9 µM and the TGI (SF-268 CNS) was > 100 µM and 61.7 µM. For the same compound, the TGI (HS 578T breast) was over 100 µM, the GI50 (SN12C renal) was > 100 µM and 25.2 µM and the TGI (SN12C renal) was > 100 µM and 81.7 µM. For the same compound, the TGI (A549 NSCLC) was over 100 µM, the TGI (HOP-62 NSCLC) was 52.9 µM and 75.7 µM and the GI50 (PC-3 prostate) was > 100 µM and 43.5 µM. For the same compound, the TGI (PC-3 prostate) was over 100 µM, the GI50 (T-47D breast) was > 100 µM and 18.6 µM and the TGI (T-47D breast) was > 100 µM and 54.4 µM. The TGI (HOP-92 NSCLC) was 59.9 µM and 99.2 µM, the GI50 (COLO 205 colon) was > 100 µM and 26.1 µM and the TGI (COLO 205 colon) was > 100 µM and 65.3 µM. For the same compound, the GI50 (SW-620 colon) was > 100 µM and 49.9 µM, the TGI (SW-620 colon) was over 100 µM and the GI50 (SF-539 CNS) was 51.6 µM and 25.7 µM. The TGI (SF-539 CNS) was > 100 µM and 70.9 µM, the GI50 (MDA-MB-435) was > 100 µM and 17.2 µM and the TGI (MDA-MB-435) was > 100 µM and 34.6 µM. The TGI (NCI-H460 lung) was over 100 µM, the GI50 (SR leukemia) was > 100 µM and 32.1 µM and the TGI (SR leukemia) was > 100 µM and 57.7 µM. For the same compound, the GI50 (MOLT-4 leukemia) was > 100 µM and 23.6 µM, the TGI (MOLT-4 leukemia) was > 100 µM and 50.8 µM and the TGI (SNB-75 CNS) was 56.5 µM and 72.4 µM. The GI50 (NCI-H522 lung) was 54.8 µM and 27 µM, the TGI (NCI-H522 lung) was > 100 µM and 51.3 µM and the GI50 (MCF7 breast) was > 100 µM and 33.7 µM. The TGI (MCF7 breast) was > 100 µM and 97.6 µM, the GI50 (MALME-3M melanoma) was > 100 µM and 32.2 µM and the TGI (MALME-3M melanoma) was > 100 µM and 98.9 µM. For the same compound, the GI50 (SK-OV-3 ovarian) was 99.5 µM and 32.1 µM, the TGI (SK-OV-3 ovarian) was > 100 µM and 96.6 µM and the GI50 (OVCAR-4 ovarian) was > 100 µM and 30.6 µM. For the same compound, the TGI (OVCAR-4 ovarian) was > 100 µM and 83.3 µM, the TGI (NCI-H226 lung) was over 100 µM and the TGI (U251 CNS) was over 100 µM. For the same compound, the TGI (HCT-15 colon) was over 100 µM, the TGI (ACHN renal) was over 100 µM and the GI50 (OVCAR-5 ovarian) was > 100 µM and 39.7 µM. For the same compound, the TGI (OVCAR-5 ovarian) was over 100 µM, the GI50 (CCRF-CEM leukemia) was > 100 µM and 43.1 µM and the TGI (CCRF-CEM leukemia) was > 100 µM and 96.7 µM. For the same compound, the GI50 (KM12 colon) was > 100 µM and 21.8 µM, the TGI (KM12 colon) was > 100 µM and 52 µM and the GI50 (RPMI-8226 leukemia) was > 100 µM and 35 µM. For the same compound, the TGI (RPMI-8226 leukemia) was > 100 µM and 75 µM, the GI50 (M14 melanoma) was > 100 µM and 36.5 µM and the TGI (M14 melanoma) was over 100 µM. For the same compound, the TGI (IGROV1 ovarian) was over 100 µM, the GI50 (UACC-62 melanoma) was 82.3 µM and 23.2 µM and the TGI (UACC-62 melanoma) was > 100 µM and 59.5 µM. For the same compound, the TGI (K-562 leukemia) was over 100 µM, the GI50 (OVCAR-8 ovarian) was > 100 µM and 16.7 µM and the TGI (OVCAR-8 ovarian) was > 100 µM and 36.2 µM. For the same compound, the TGI (NCI/ADR-RES ovarian) was over 100 µM, the GI50 (HT29 colon) was > 100 µM and 24.3 µM and the TGI (HT29 colon) was > 100 µM and 52.8 µM. For the same compound, the TGI (DU-145 prostate) was over 100 µM, the GI50 (SK-MEL-28 melanoma) was > 100 µM and 25.7 µM and the TGI (SK-MEL-28 melanoma) was > 100 µM and 62.8 µM. For the same compound, the GI50 (SK-MEL-2 melanoma) was > 61.6 µM and 13.6 µM, the TGI (SK-MEL-2 melanoma) was > 100 µM and 31.8 µM and the GI50 (LOX IMVI melanoma) was > 100 µM and 17.2 µM. For the same compound, the TGI (LOX IMVI melanoma) was > 100 µM and 31 µM, the TGI (RXF 393 renal) was 59.4 µM and 59.1 µM and the GI50 (A498 renal) was > 69 µM and 30.3 µM. For the same compound, the TGI (A498 renal) was > 100 µM and 74 µM, the GI50 (SF-295 CNS) was 29.4 µM and > 100 µM and the TGI (SF-295 CNS) was over 100 µM. For the same compound, the GI50 (HL-60(TB) leukemia) was > 100 µM and 17.4 µM, the TGI (HL-60(TB) leukemia) was > 100 µM and 35.5 µM and the GI50 (MDA-MB-231 breast) was > 71.9 µM and 22.1 µM. For the same compound, the TGI (MDA-MB-231 breast) was > 100 µM and 83.7 µM, the GI50 (EKVX NSCLC) was > 100 µM and 25.1 µM and the TGI (EKVX NSCLC) was > 100 µM and 76.1 µM. For the same compound, the TGI (SNB-19 CNS) was over 100 µM, the GI50 (MDA-N) was > 100 µM and 28.3 µM and the TGI (MDA-N) was > 100 µM and 86.5 µM.

Source: PubChem BioAssay (NCI)
